Test results reported in ChEMBL document CHEMBL1201862, “PubChem BioAssay data set” (2004).
Calls of active or inactive are those of the source. For most assays here, no stated cut-off is given here; in the data, actives have a measured EC50 and inactives only a lower limit.

What was measured:
[1] = molecular target: T1, Heat shock factor protein 1 (Mus musculus, UniProt P38532); assay: HSF1 potentiators in luciferase reporter cells, confirmation, cell-based, NIH3T3, luminescence, dose retest (AID 435004); format: functional;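 further: stress induced by proteasome inhibitor MG132 added 30 min after compound; luciferase reporter driven by HSF1 response element in NIH3T3 cells; actives raise luminescence as potentiators of the MG132 stress response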
T1 sequence (P38532 whole entry): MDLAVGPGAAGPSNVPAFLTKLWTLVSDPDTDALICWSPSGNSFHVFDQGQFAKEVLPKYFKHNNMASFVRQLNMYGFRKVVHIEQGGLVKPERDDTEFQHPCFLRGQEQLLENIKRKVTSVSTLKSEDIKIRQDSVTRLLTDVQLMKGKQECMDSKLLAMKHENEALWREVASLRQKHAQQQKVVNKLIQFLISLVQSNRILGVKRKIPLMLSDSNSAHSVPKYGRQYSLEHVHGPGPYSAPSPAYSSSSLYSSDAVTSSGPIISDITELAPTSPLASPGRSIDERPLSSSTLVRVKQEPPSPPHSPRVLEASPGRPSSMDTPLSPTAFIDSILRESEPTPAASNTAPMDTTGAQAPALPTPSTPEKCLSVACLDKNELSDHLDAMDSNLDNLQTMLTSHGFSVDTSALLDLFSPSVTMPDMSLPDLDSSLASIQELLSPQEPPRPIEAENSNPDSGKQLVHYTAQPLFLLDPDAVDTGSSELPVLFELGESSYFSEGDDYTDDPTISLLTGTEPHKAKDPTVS

[2] = molecular target: T1, Heat shock factor protein 1; assay: inhibition of MG132-induced HSE-luciferase signal, confirmation, cell-based, NIH3T3, luminescence, dose retest (AID 2382); format: functional;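 further: NIH3T3 fibroblasts with HSF1-driven luciferase reporter stressed by proteasome inhibitor MG132; luminescence from HSF1-driven luciferase expression after 8 hours of MG132 stress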
Cytochrome P450 2C9 = Cytochrome P450 2C9 (Homo sapiens, UniProt P11712)
Streptococcus = assay: Group A Streptococcus viability loss, dose response, counter-screen for streptokinase expression inhibitor project, luminescence, BacTiterGlo (AID 1915); format: functional, organism-based;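 further: potency for reduction of bacterial viability or growth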
Streptokinase A = molecular target: T2, Streptokinase A (Streptococcus pyogenes serotype M1, UniProt P10520); assay: S. pyogenes streptokinase expression inhibitors, potency, dose response, plasminogen activation absorbance, OD405 (AID 1914); format: functional, Streptococcus pyogenes M1 GAS;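 further: secreted streptokinase activity via plasminogen activation per viability signal from cell pellet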
T2 sequence (P10520 whole entry): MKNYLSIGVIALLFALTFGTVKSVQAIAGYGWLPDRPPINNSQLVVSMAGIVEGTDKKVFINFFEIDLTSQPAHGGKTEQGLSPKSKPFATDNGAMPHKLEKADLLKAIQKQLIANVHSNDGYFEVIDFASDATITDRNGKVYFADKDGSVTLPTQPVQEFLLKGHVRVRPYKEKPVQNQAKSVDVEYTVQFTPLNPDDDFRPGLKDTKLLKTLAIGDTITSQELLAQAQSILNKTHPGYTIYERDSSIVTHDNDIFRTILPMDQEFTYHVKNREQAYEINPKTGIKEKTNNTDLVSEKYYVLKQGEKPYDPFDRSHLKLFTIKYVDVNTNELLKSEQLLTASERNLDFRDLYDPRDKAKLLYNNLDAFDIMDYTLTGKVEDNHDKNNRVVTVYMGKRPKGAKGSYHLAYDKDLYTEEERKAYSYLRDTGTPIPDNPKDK

[3] = system: Streptococcus sp. 'group A'; assay: growth inhibition of control SK(-) GAS strain, dose response, counter-screen for streptokinase expression inhibitor project, luminescence, kanamycin, BacTiterGlo, confirmation (AID 1900); format: functional, organism-based
[4] = HepG2 cell cytotoxicity, dose response, cytotoxicity control for Shn3 inhibitor project, CellTiter-Glo, cherry-picked (AID 624134); format: functional, cell-based
[5] = Shn3 3'UTR reporter inhibitors, dose response, cell-based, Clone20 osteoblasts, firefly luciferase, cherry-picked (AID 624132); format: functional;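 further: firefly luciferase luminescence from reporter carrying the Shn3 3'UTR in osteoblasts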
[6] = control 3'UTR Renilla luciferase suppression, dose response, counter-screen for Shn3 inhibitor project, cell-based, Clone20-Shn3RL, cherry-picked (AID 624133); format: functional
INS1 = assay: beta cell apoptosis inhibitors, cytokine rescue, dose response, luminescence, retest (AID 449756); format: functional, cell-based; conditions: Rattus norvegicus;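 further: cell death triggered by IL-1 beta plus TNF-alpha plus IFN-gamma mixture; protective hits raise ATP signal compared with cytokine alone wells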
Protein RecA = molecular target: T3, Protein RecA (Mycobacterium tuberculosis, UniProt P9WHJ3); assay: Fluorescence Cell-Free Homogeneous Dose Retest to Identify Inhibitors of RecA-Intein Splicing Activity. [Related pubchem assays (depositor defined):AID2097, AID2223, AID489010, AID492950]; format: functional
T3 sequence (P9WHJ3 whole entry): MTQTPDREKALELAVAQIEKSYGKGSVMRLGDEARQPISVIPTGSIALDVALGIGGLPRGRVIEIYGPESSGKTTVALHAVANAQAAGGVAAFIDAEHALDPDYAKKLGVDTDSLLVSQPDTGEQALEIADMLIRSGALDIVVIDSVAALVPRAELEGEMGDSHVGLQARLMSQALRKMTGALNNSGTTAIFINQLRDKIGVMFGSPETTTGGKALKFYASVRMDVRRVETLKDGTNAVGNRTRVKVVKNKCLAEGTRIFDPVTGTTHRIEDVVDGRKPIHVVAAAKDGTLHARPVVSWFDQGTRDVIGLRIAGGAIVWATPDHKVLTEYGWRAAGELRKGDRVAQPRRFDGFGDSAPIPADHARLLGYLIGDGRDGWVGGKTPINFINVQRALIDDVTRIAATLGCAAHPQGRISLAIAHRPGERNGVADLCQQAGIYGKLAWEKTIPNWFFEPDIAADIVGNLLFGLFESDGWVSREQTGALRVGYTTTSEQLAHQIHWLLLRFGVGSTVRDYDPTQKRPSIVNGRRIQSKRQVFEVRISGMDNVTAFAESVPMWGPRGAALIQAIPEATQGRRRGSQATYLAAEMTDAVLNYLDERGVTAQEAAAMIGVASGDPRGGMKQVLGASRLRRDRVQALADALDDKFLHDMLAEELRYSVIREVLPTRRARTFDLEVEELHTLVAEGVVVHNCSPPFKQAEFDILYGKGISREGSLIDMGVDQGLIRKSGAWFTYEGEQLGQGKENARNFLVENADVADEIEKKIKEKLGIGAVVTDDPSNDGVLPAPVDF

Cytochrome P450 2C9, sequence (P11712 whole entry): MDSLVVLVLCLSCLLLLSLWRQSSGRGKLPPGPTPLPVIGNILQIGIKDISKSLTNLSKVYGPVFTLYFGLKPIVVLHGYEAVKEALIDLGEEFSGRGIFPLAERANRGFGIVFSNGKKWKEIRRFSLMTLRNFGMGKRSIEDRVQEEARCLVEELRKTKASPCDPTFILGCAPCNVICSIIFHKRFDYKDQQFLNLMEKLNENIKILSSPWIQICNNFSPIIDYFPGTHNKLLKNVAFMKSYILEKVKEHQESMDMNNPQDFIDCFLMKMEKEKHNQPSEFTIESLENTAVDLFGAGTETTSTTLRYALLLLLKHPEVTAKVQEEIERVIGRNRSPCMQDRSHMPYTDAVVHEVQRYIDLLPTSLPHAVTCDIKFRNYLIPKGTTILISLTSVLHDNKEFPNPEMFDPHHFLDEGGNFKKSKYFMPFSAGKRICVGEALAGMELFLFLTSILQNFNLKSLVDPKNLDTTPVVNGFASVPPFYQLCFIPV

## Cc1cccc(N2C(=N)SCC2=O)c1C
[1]
  EC50: > 260 µM (inactive)

## CCOC(=O)C1CCN(C(=O)CC(C)c2ccccc2)CC1 (stereo not given)
[2]
  EC50: 13.5 µM (active)

## O=C(Nc1ccc(N2CCOCC2)cc1)c1cc(-c2ccncc2)nc2ccccc12
[2]
  EC50: > 195 µM (not active)

## O=C1C(CC[S+]([O-])c2ccccc2)C(=O)N(c2ccccc2)N1c1ccccc1 (stereo not given) [SULFINPYRAZONE]
Cytochrome P450 2C9
  AC50: 10 µM (inconclusive)

## CC(C)C[C@@H](CC#N)N1CCN(Cc2ccccc2)CCC1=O
[2]
  EC50: > 195 µM (not active)

## O=C(Nc1ccc(N2C(=O)C3C4C=CC(C4)C3C2=O)cc1)Nc1nncs1 (stereo not given)
[2]
  EC50: > 195 µM (not active)

## Cc1cc(NC(=S)N(Cc2ccc(Cl)cc2)Cc2ccc(C(=O)O)cc2)ccc1Cl
Streptococcus
  EC50: > 150 µM (not active)
Streptokinase A
  EC50: > 150 µM (not active)
[3]
  EC50: 10.1 µM (active)

## CCN1CCN(Cc2ccc(NC(=O)c3ccc(C)c(NC(=O)c4cncc(-c5cccs5)c4)c3)cc2C(F)(F)F)CC1
[4]
  AC50: 7.28 µM (active)
[5]
  AC50: 0.808 µM (active)
[6]
  AC50: 0.898 µM (active)

## O=C(NCc1ccco1)C1CC(O)CN1C(=O)Nc1ccccc1 (stereo not given)
[1]
  EC50: > 260 µM (inactive)

## CC(=O)c1cccc(NS(=O)(=O)c2ccc(N/C=C\C(=O)c3ccc(C)cc3)cc2)c1
[4]
  AC50: > 70 µM (inactive)
[5]
  AC50: 1.51 µM (active)
[6]
  AC50: 19.6 µM (active)

## Cc1cc(C)n(-c2cc(=O)n(C)c(=O)n2C)n1
[1]
  EC50: > 260 µM (inactive)

## Cn1c(=O)c2cn(Cc3ccc(Cl)cc3)cc2n(C)c1=O
[2]
  EC50: > 195 µM (not active)

## O=c1cc2c(nn1Cc1ccc(Cl)cc1Cl)-c1ccccc1CC2
Streptococcus
  EC50: 17.6 µM (active)
Streptokinase A
  EC50: 11 µM (active)
[3]
  EC50: 7.36 µM (active)

## Cc1ccc(-c2csc3ncnc(O)c23)c(C)c1
[1]
  EC50: > 260 µM (inactive)

## CC1Cc2ccccc2N1C(=O)C12CCC(C)(C(=O)C1)C2(C)C (stereo not given)
[2]
  EC50: > 195 µM (not active)

## CCn1c(SCC(=O)c2ccccc2)nnc1-c1cccs1
Cytochrome P450 2C9
  AC50: 28.2 µM (inconclusive)

## COc1cccc(CNCC(O)(c2ccc(Cl)cc2)c2ccc(Cl)cc2)c1
Streptococcus
  EC50: 18.2 µM (active)
Streptokinase A
  EC50: 18.9 µM (active)
[3]
  EC50: 3.15 µM (active)

## CCN(CC)S(=O)(=O)c1ccc2c(c1)nc(SCC(=O)NC1CC1)n2-c1ccccc1OC
[1]
  EC50: > 260 µM (inactive)

## CCOc1ccc(NC(=O)CCCNC(=O)Cn2cnc3sc(C)c(C)c3c2=O)cc1
[2]
  EC50: > 195 µM (not active)

## COc1ccc(NC(=O)c2cccnc2)cc1OCC(C)C
[2]
  EC50: > 195 µM (not active)

## Oc1cc(O)nc(SCc2ccc(Cl)cc2)n1
Streptococcus
  EC50: > 150 µM (not active)
Streptokinase A
  EC50: > 150 µM (not active)
[3]
  EC50: 81.5 µM (active)

## O=S(=O)(NC(=Nc1cccc2ccccc12)c1ccccc1)c1ccc(F)cc1
[1]
  EC50: > 260 µM (inactive)

## COc1ccc(C)cc1Cn1c(S(C)(=O)=O)nc2ccccc21
[1]
  EC50: > 260 µM (inactive)

## O=C(/C=C/c1ccc(Cl)cc1)NCCSc1ccccc1
Cytochrome P450 2C9
  AC50: 5.01 µM (inconclusive)

## CC(C)c1ccc(/C(C(=O)O)=C(\O)C(=O)O)cc1
Cytochrome P450 2C9
  AC50: 3.16 µM (inconclusive)

## CC(=O)Nc1ccc(Cc2ccncc2)cc1
[2]
  EC50: > 195 µM (not active)

## CCc1nnc(N/N=C/c2ccccc2Cl)n1N
[1]
  EC50: > 260 µM (inactive)

## CCCCNc1c(-c2ccc(OC)c(SC3CCCCC3)c2)nc2cnccn12
Streptococcus
  EC50: 8.16 µM (active)
Streptokinase A
  EC50: 6.56 µM (active)
[3]
  EC50: 4.63 µM (active)

## Cn1c(=O)c2c(nc(NCCO)n2C)n(C)c1=O
[1]
  EC50: > 260 µM (inactive)

## COCCn1c(SCC(=O)c2cc(C)n(C)c2C)nc2ccccc2c1=O
[2]
  EC50: > 195 µM (not active)

## COc1ccc(N=C(S)Nc2ccccc2SC)c(OC)c1
[1]
  EC50: > 260 µM (inactive)

## N#Cc1ccccc1COC(=O)c1cc(=O)c2ccccc2o1
[1]
  EC50: > 260 µM (inactive)

## CC(C)(C)c1cnnn1-c1ccc(/C=N/Nc2ccc([N+](=O)[O-])cc2)cc1
INS1
  AC50: 4.33 µM (active)

## Fc1ccc(NC(S)=NCc2ccccc2)cc1
[2]
  EC50: > 195 µM (not active)

## COCCN1C(=O)c2ccccc2C(C(=O)Nc2ccc3c(c2)OCCO3)C1c1ccc(F)cc1 (stereo not given)
Cytochrome P450 2C9
  AC50: 35.5 µM (inconclusive)

## COc1cc(-c2ccc(NC(=O)NC3CC3)c(OC)c2)ccc1NC(=O)NC1CC1
Streptococcus
  EC50: 135 µM (active)
Streptokinase A
  EC50: > 150 µM (not active)
[3]
  EC50: 117 µM (active)

## O=[N+]([O-])c1cccc(-c2nc(-c3ccncc3)no2)c1
Cytochrome P450 2C9
  AC50: 8.91 µM (inconclusive)

## CCOC(=O)c1cc(-c2ccc3c(c2)OCCO3)nc2c1c(C)nn2CCC#N
Streptococcus
  EC50: 17.6 µM (active)
Streptokinase A
  EC50: > 150 µM (not active)
[3]
  EC50: 4.49 µM (active)

## CCOc1ccc(N(C)S(=O)(=O)c2ccc(C)c(C(=O)OCC(=O)c3c[nH]c4ccccc34)c2)cc1
INS1
  AC50: 11.3 µM (active)

## COC(=O)c1ccc(CN2CCN(CCc3ccccc3)C(CCO)C2)cc1 (stereo not given)
[2]
  EC50: > 195 µM (not active)

## CCCCCCCCCCCCN1C(=O)CSC1c1cccnc1 (stereo not given)
Streptococcus
  EC50: > 150 µM (not active)
Streptokinase A
  EC50: 20.4 µM (active)
[3]
  EC50: 6.74 µM (active)

## COc1ccc(S(=O)(=O)NCC(c2ccc(F)cc2)N2CCN(C)CC2)cc1 (stereo not given)
Streptococcus
  EC50: > 150 µM (not active)
Streptokinase A
  EC50: > 150 µM (not active)
[3]
  EC50: > 150 µM (not active)

## OC1(c2ccc(Br)cc2)CCN(Cc2cccc(Br)c2)CC1
[2]
  EC50: > 195 µM (not active)

## Cc1ccccc1OCC(=O)Nc1ccccc1N1CCCCC1
Streptococcus
  EC50: 17.9 µM (active)
Protein RecA
  EC50: 242 µM (active)
Streptokinase A
  EC50: 14.2 µM (active)
[3]
  EC50: 9.64 µM (active)

## O=C(COC(=O)C1CSC2(c3ccc(F)cc3)CCC(=O)N12)NC(=O)NC1CCCC1 (stereo not given)
[1]
  EC50: > 260 µM (inactive)

## Cc1ccc(S(=O)(=O)N2CCC(C(=O)NNC(=O)c3ccncc3)CC2)cc1
[2]
  EC50: > 195 µM (not active)

## COc1cc(OC)c(OC)cc1CNC(=O)c1cccc(S(=O)(=O)N2CCc3ccccc3C2)c1
[4]
  AC50: 3.08 µM (active)
[5]
  AC50: 2.39 µM (active)
[6]
  AC50: 24 µM (active)

## CCCC(c1nnnn1Cc1ccc(OC)cc1)N1CCN(c2ccccc2)CC1 (stereo not given)
[5]
  AC50: 31.9 µM (active)

## O=S(=O)(c1ccc(F)c(F)c1F)N1CCN(c2ncnc3sccc23)CC1
INS1
  AC50: 4.95 µM (active)

## COC(=O)c1ccc(CNC(=O)C(NC(=O)c2ccco2)C(C)C)cc1 (stereo not given)
[2]
  EC50: > 195 µM (not active)

## Cn1c(CCC(=O)OCC(=O)Nc2ccc(Oc3ccccc3)cc2)nc(=O)c2ccccc21
[1]
  EC50: > 260 µM (inactive)

## Cc1nc2ccccc2c2oc(C(=O)Nc3ccc(C(C)C)cc3)cc12
INS1
  AC50: 18.8 µM (active)

## C=CCN(CC=C)Cc1c[nH]c2ccccc12
INS1
  AC50: > 260 µM (inactive)
